# Where two headings read alike, the source gives them in different places. Where no end group is shown, it is not given here.
# Columns and labels:
# [1] = system: peptide-pulsed autologous EBV-B cells; format: cell-based, human
# Description: (§1) Cytotoxic response. Cytotoxicity was examined by a conventional ^51Cr-release assay, as described (6). Briefly, target cells (i.e. T2, C1R-A2, BLCL, K562) were radiolabeled with 200 μCi of Na2[^51Cr]04 (Amersham) for 60 minutes at 37° C., followed by thorough washing to remove unincorporated isotope. Effectors and targets (1×10^4/well) were incubated in 96-well, U-bottomed plates (Costar) at various effector target (E/T) ratios in the absence and presence of peptide (+/−monoclonal antibody (MAb) directed against CD4, CD8 or HLA-A2 molecules (clone BB7.2 from ATCC)) for up to 6 hours. After incubation, supernatants were collected using a Supernatant Collection System (Skatron, Sterling, Va.) and radioactivity measured in a γ-counter (Packard Instruments, Downers Grove, Ill.). Cytotoxic activity was defined as percent specific release of ^51Cr and determined by the equation: [(experimentalcpm−spontaneouscpm)/maximumcpm−spontaneouscpm)]×100. Results were expressed as the mean±SEM of triplicate cultures. The C1R-A2 line is a BLCL transfected with the HLA-A2 gene (obtained from Dr. P. Creswell, Yale University) (Storkus et al, 1987 J. Immunol. 138:1657-1659), and K562 is an erythroleukemia cell line (ATCC, Rockville, Md.) used to measure NK activity.
# [2] = molecular target: T1, human HLA-A2 (Homo sapiens, UniProt P04439, D140Y/D185E/D98H/E176V/E277Q/G131W/G231S/I119V/I121R/I166T/I218V/L300P/L318F/N151K/N90K/P208A/P217A/Q86G/Q94H/R138H/R169H/T345S); assay: HLA-A2 binding bioassay on T2 cells (flow cytometry); settings: for Immunostaining of T2 cells with Isotype control MAb: no peptide = 84.0
# T1 construct: The 174CEM.T2 cell line (“T2”), (transport deletion mutant); endogenous in cells; host or cells: 174CEM.T2 (T2) human cell line
# [3] = system: SW480 cells; assay: Flow cytometric analysis of SW480 cells for HLA-A2 and ICAM-1 after IFN-γ pretreatment; format: cell-based, human
# Description: (§2) FIGS. 10A and 10B. Anti-ras Val12-specific CTL from patient 29 lyse SW480 tumor targets in the absence of exogenous peptide. FIG. 10A: Anti-ras Val12-specific CD8^+ CTL from patient 29 were assayed against the SW480 colon carcinoma cell line (HLA-A2^+, rasVal12+) in the absence of exogenous peptide, with or without IFN-γ pretreatment (250 U/ml for 24 hr) of the target cells. CD8^+ CTL reactive with the […] peptide were used as an irrelevant effector cell population. Cytotoxicity was determined by ^51Cr-release, and the results expressed at different effector/target ratios. FIG. 10B: In parallel to 10A, anti-ras or anti-MART-1-specific CTL were assayed against SW480 (±IFN-γ pretreatment) at an effector/target ratio of 10/1 in the absence or presence of exogenous peptide (5 μg/ml). […] Flow cytometric analysis of SW480 cells for expression of HLA-A2: untreated=65.4% with MFI of 29.8; IFN-γ-pretreated=99.5% with MFI of 349.6. Flow cytometric analysis of SW480 cells for expression of ICAM-1: untreated=16.0% with MFI of 30.3; IFN-γ-pretreated=98.6% with MFI of 181.9.
# Isolation and preparation of peripheral blood mononuclear cells (PBMC). PBMC were isolated from 50 ml of heparinized whole blood by Ficoll-Hypaque density gradient centrifugation (Lymphocyte Separation Medium; Organon-Teknika, Durham, N.C.) prior to the first vaccination and four weeks after each vaccination. After isolation at each interval, PBMC were cryopreserved under liquid nitrogen in a sterile cocktail of 90% heat-inactivated, pooled human AB serum (Valley Biomedical, Winchester, Va.) and 10% dimethyl sulfoxide (DMSO) (Sigma Chemical Co., St. Louis, Mo.). Basic cellular immune responses to mitogens and antigens were first determined using freshly-thawed, unfractionated PBMC, derived pre-vaccination and post-third vaccination. For all functional assays and cell culture preparation, PBMC were suspended in a RPMI-1640 based-medium, supplemented with 15 mM HEPES buffer (pH 7.4), 2 mM L-glutamine, 0.1 mM non-essential amino acids, 1 mM sodium pyruvate, 50 μM β-mercaptoethanol, 50 μg/ml gentamicin (all from GIBCO/BRL, Gaithersburg, Md.) and 10% heat-inactivated human AB serum (Valley Biomedical). Cell surface phenotype of resting and activated lymphocyte cultures was analyzed by direct immunofluorescence. Cells were treated with the appropriate primary monoclonal antibody (MAb) conjugated to fluorescein isothiocyanate (FITC) (from Pharmingen, San Diego, Calif. or Becton Dickinson, Mountain View, Calif.), fixed with 1% paraformaldehyde and evaluated by flow cytometry using a FACScan (Becton Dickinson) for the percentage of positive cells and mean fluorescent intensity (MFI).
# [4] = system: SW480 colon carcinoma cell line (HLA-A2+, rasVal12+); assay: 51Cr-release cytotoxicity of CTL against SW480 colon carcinoma cells; format: cell-based, human; settings: IFN-γ 250 U/ml for 24 hr; no lysis without pretreatment (FIG. 10A)
# Description: as §2
# (§3) Cytotoxic response. Cytotoxicity was examined by a conventional ^51Cr-release assay, as described (6). […] After incubation, supernatants were collected using a Supernatant Collection System (Skatron, Sterling, Va.) and radioactivity measured in a γ-counter (Packard Instruments, Downers Grove, Ill.). Cytotoxic activity was defined as percent specific release of ^51Cr and determined by the equation: [(experimentalcpm−spontaneouscpm)/maximumcpm−spontaneouscpm)]×100. Results were expressed as the mean±SEM of triplicate cultures. […]
# Studies were also carried out to determine whether such peptide-induced CD8^+ CTL could recognize a processed form of the corresponding mutant ras protein. […] In contrast to the CD4^+ analysis, which measured lymphoproliferation to soluble protein, the CD8^+ CTL analysis reflected lytic ability against SW480 cells harboring the naturally-occurring mutation in the absence of exogenously added peptide. […]
# [5] = system: T2 cell line as target of CD8+ CTL line of RAS patient 32; assay: 51Cr-release cytotoxicity of CD8+ CTL line of RAS patient 32 against peptide-pulsed T2 targets; format: cell-based, human; settings: peptide 10 μg/ml, IVS cycle 7 (FIG. 5)
# Description: FIG. 5. Cytolytic activity by CD8^+ CTL line of RAS patient 32 is peptide-specific. The CD8^+ CTL line of RAS patient 32 (see FIG. 3) was assayed against the T2 cell line as a target, incubated with and without different ras peptides (10 μg/ml), as shown. In parallel, the extent of NK activity was evaluated against K562 cells. Cytotoxicity was determined by ^51Cr-release, and the results expressed at different E/T ratios following IVS cycle 7. Similar results were observed using the second, independently-derived CD8^+ CTL line as described in Table 6.
# (§4) IVS cycles for evaluation of CD8^+ T cell responses from HLA-A2+Patients. Freshly-thawed PBMC (from ras patients 32 and 33), derived pre-vaccination and post-third vaccination, were enriched in T lymphocytes by passage over nylon wool columns (Robbins Scientific, Sunnyvale, Calif.) and then depleted of CD4^+ T cells by negative selection via panning on anti-CD4 MAb-coated T25 flasks (Applied Immune Sciences, Santa Clara, Calif.). For the first IVS cycle, CD8^+ enriched lymphocytes (5×10^5/well) were cultured in 24-well plates with irradiated, autologous PBMC (5×10^6/well) as APC which had been preincubated for 3 hours with the appropriate mutant ras peptide ([…]) plus human β2-microglobulin (10 μg/ml) (Calbiochem, San Diego, Calif.). […] IL-2 (10 U/ml) was added 3 days later. After an additional 7 days, viable cells (2-5×10^5/well) were re-cultured by weekly stimulation with APC pre-pulsed with peptide/β2-microglobulin, and IL-2 added one day later. After the third or fourth IVS cycle, autologous PBMC were replaced with EBV-transformed, autologous BLCL (5×10^5/well) as APC. […] CTL activity was evaluated from cultures 5 to 6 days after Ag restimulation.
# as §1, with “The C1R-A2 line is a BLCL transfected with the HLA-A2 gene (obtained from Dr. P. Creswell, Yale University) (Storkus et al, 1987 J. Immunol. 138:1657-1659), and K562 is an erythroleukemia cell line (ATCC, Rockville, Md.) used to measure NK activity.” left out
# [6] = system: C1R-A2 cell line as target of CD8+ CTL line of RAS patient 32; assay: 51Cr-release cytotoxicity of CD8+ CTL line of RAS patient 32 against peptide-pulsed C1R-A2 targets; format: cell-based, human; settings: for % Specific Lysis: E/T 20/1, 6 hr
# Description: as §4, §1
# [7] = system: C1R-A2 targets / autologous EBV-B cells as targets of CD8+ CTL line of patient 29; assay: 51Cr-release cytotoxicity of CD8+ CTL line of patient 29 against C1R-A2 or autologous EBV-B targets; format: cell-based, human; settings: autologous EBV-B targets, IVS cycle 11, effector/target ratio 10/1 (FIG. 9B)
# Description: FIGS. 9A and 9B. Production of a peptide-specific CD8^+ T cell line from post-vaccinated lymphocytes of patient 29. FIG. 9A: A CD8^+ CTL line was established from post-vaccinated PBMC of patient 29 and assayed for peptide specificity against C1R-A2 targets. Cytotoxicity was determined by ^51Cr-release, and the results expressed at different effector/target ratios following IVS cycle 7. FIG. 9B: Using this CD8^+ CTL line, the requirement for HLA-A2 in peptide presentation (by autologous EBV-B cells as targets) was determined in blocking experiments using MAb (clone BB7.2; ascites=1:30 dilution) directed against that molecule (or using an isotype-matched MAb). […] CD4 and CD8 MAbs were as described for FIGS. 8A and 8b. Control lysis in the absence of peptide or in the presence of ras5-14(Gly12) was <3%.
# as §3
# [8] = peptide 50 μg/ml + β2-microglobulin 3 μg/ml, overnight 37° C., serum-free
# [9] = Post-Immune CD8+ culture, IVS cycle 6, 10-mer peptide 10 μg/ml
# [10] = Post-Immune CD8+ culture, IVS cycle 7, 10-mer peptide 10 μg/ml
# [11] = Post-Immune CD8+ culture, IVS cycle 8, 10-mer peptide 10 μg/ml
# [12] = Post-Immune CD8+ culture, IVS cycle 9, 10-mer peptide 10 μg/ml
# [13] = Pre-Immune CD8+ culture, IVS cycle 6, 10-mer peptide 10 μg/ml
# [14] = Pre-Immune CD8+ culture, IVS cycle 7, 10-mer peptide 10 μg/ml
compound,measurement,setting,value
CC(C)C[C@H](NC(=O)[C@@H](N)CCCCN)C(=O)N[C@H](C(=O)N[C@H](C(=O)N[C@H](C(=O)NCC(=O)N[C@@H](C)C(=O)N[C@@H](CS)C(=O)NCC(=O)N[C@H](C(=O)NCC(=O)N[C@@H](CCCCN)C(=O)N[C@@H](CO)C(=O)O)C(C)C)C(C)C)C(C)C)C(C)C [ras5-17(Cys12)],Specific cytotoxic response of CD4+ T cell line,[1]; CD4+ T cell line of patient 43,no specific cytotoxic response was detected
CC(C)C[C@H](NC(=O)[C@@H](N)CCCCN)C(=O)N[C@H](C(=O)N[C@H](C(=O)N[C@H](C(=O)NCC(=O)N[C@@H](C)C(=O)N[C@H](C(=O)NCC(=O)N[C@H](C(=O)NCC(=O)N[C@@H](CCCCN)C(=O)N[C@@H](CO)C(=O)O)C(C)C)C(C)C)C(C)C)C(C)C)C(C)C [ras5-17(Val12)],Specific cytotoxic response of CD4+ T cell line,[1]; CD4+ T cell line of patient 29,did not display specific cytotoxicity
"CEA571-579: 9 amino acid peptide, HLA-A2-restricted CEA-specific CD8+ CTL epitope, positive control for HLA-A2 binding (CGIQNSVSA; UniProt P06731 571-579, looked up, fragment)",Immunostaining of T2 cells with Isotype control MAb,[2]; [8],48.4 MFI
same,Immunostaining of T2 cells with MAb against HLA-A2,"[2]; peptide 50 μg/ml + β2-microglobulin 3 μg/ml, overnight 37° C., serum-free, no peptide = 137.9",679.5 MFI
same,Immunostaining of T2 cells with Pan Class I MAb (W6/32),"[2]; peptide 50 μg/ml + β2-microglobulin 3 μg/ml, overnight 37° C., serum-free, no peptide = 230.4",991.2 MFI
IFN-γ: interferon gamma used to pretreat SW480 target cells,SW480 cells positive for HLA-A2,"[3]; IFN-γ-pretreated (250 U/ml, 24 hr), untreated 65.4%",99.5%
same,SW480 cells positive for ICAM-1,"[3]; IFN-γ-pretreated, untreated 16.0%",98.6%
same,HLA-A2 expression on SW480,"[3]; IFN-γ-pretreated, untreated 29.8",349.6 MFI
same,ICAM-1 expression on SW480,"[3]; IFN-γ-pretreated, untreated 30.3",181.9 MFI
same,"Lysis of SW480 by anti-rasVal12 CTL after pretreatment of targets, no exogenous peptide",[4],demonstrable cytotoxicity was observed at multiple effector/target ratios
Lys-Leu-Val-Val-Val-Gly-Ala-Asp-Gly-Val [ras5-14(Asp12)],Sensitization of T2 targets for lysis (in words),[5],sensitized the T2 cell line for lysis
same,% Specific Lysis,[6]; [9],24 ± 2%
same,% Specific Lysis,[6]; [10],26 ± 2%
same,% Specific Lysis,[6]; [11],67 ± 2%
same,% Specific Lysis,[6]; [12],68 ± 4%
same,% Specific Lysis,[6]; [13],14 ± 0%
same,% Specific Lysis,[6]; [14],0%
YLVVVGADGV [Tyr variant],Binding activity to HLA-A2 on T2 cells relative to native ras5-14(Asp12) sequence,[2]; less dependency for exogenous β2-macroglobulin,higher binding activity than did the native peptide sequence
same,"Shift in dose-response of target sensitization for lysis vs native peptide, based on half-maximal activity","[6]; anti-ras5-14(Asp12) CTL line, E/T 10/1 (FIG. 11)",three-fold
ras5-14(Gly12): wild-type ras 10-mer peptide positions 5-14 with Gly at position 12 (KLVVVGAGGV),Immunostaining of T2 cells with Isotype control MAb,[2]; [8],41.3 MFI
same,Sensitization of T2 targets for lysis (in words),[5],failed to stimulate lysis
same,Control lysis,[7],< 3%
same,Control lysis,"[6]; IVS cycle 16, effector/target ratio 10/1 (FIG. 7)",< 3%
same,% Specific Lysis,[6]; [9],8 ± 0%
same,% Specific Lysis,[6]; [10],8 ± 1%
same,% Specific Lysis,[6]; [11],10 ± 1%
same,% Specific Lysis,[6]; [12],21 ± 2%
same,% Specific Lysis,[6]; [13],10 ± 1%
same,% Specific Lysis,[6]; [14],0%

# Source: patent US7709002B1, “Mutated ras peptides for generation of CD8+Cytotoxic T lymphocytes” (The United States of America as represented by the …, priority 1996, dated 2010)
